Data as given in the supplement of paper PMC10307832.

How the values were obtained:
Experiment in all cases: relative viability (nuclei count vs DMSO), 5 days (fraction); higher = more cells survive
[1] = compound: C1=CC2=C(C=CC(=C2)C=C3C(=O)NC(=NCC4=CC=CS4)S3)N=C1 [RO-3306] + CC(=O)Nc1cccc(-n2c(=O)n(C3CC3)c(=O)c3c(Nc4ccc(I)cc4F)n(C)c(=O)c(C)c32)c1 [Trametinib] (partner 0.02 µM)
Outline: (§1)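 Lung cancer cell lines in 1536-well plates were dosed by pin tool the day after seeding, either with one drug alone or with a fixed anchor-drug dose plus five library-drug doses (not always all listed) in √10 steps. After 5 days, cells were fixed and their nuclei stained in one step (final 0.05% Triton X-100, 1% formaldehyde, 1 ug/ml Hoechst), then counted on 4× images. Relative viability is the nuclei count in treated wells divided by that in vehicle wells. Values are medians of duplicate plates.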

[2] = compound: C1=CC2=C(C=CC(=C2)C=C3C(=O)NC(=NCC4=CC=CS4)S3)N=C1 [RO-3306] + CS(=O)(=O)N1CCN(Cc2cc3nc(-c4cccc5[nH]ncc45)nc(N4CCOCC4)c3s2)CC1 [Pictilisib] (partner 1 µM)
Outline: as §1

[3] = compound: O=S(=O)(c1ccccc1)N(CC(F)(F)F)c1ccc(C(O)(C(F)(F)F)C(F)(F)F)cc1 + Cc1cc(Nc2cc(N3CCN(C)CC3)nc(Sc3ccc(NC(=O)C4CC4)cc3)n2)n[nH]1 [Tozasertib] (partner 0.1 µM)
Outline: as §1

[4] = compound: O=S(=O)(c1ccccc1)N(CC(F)(F)F)c1ccc(C(O)(C(F)(F)F)C(F)(F)F)cc1 + Nc1nc2[nH]cc(CCc3ccc(C(=O)N[C@@H](CCC(=O)O)C(=O)O)cc3)c2c(=O)[nH]1 [Pemetrexed] (partner 0.2 µM)
Outline: as §1

Cell Line	relative viability ([1]; first compound 0.01 µM)	relative viability ([1]; first compound 0.03162 µM)	relative viability ([1]; first compound 0.1 µM)	relative viability ([1]; first compound 0.3162 µM)	relative viability ([1]; first compound 1 µM)	relative viability ([2]; first compound 0.01 µM)	relative viability ([2]; first compound 0.03162 µM)	relative viability ([2]; first compound 0.1 µM)	relative viability ([2]; first compound 0.3162 µM)	relative viability ([2]; first compound 1 µM)	relative viability ([3]; first compound 0.8 µM)	relative viability ([3]; first compound 2.53 µM)	relative viability ([3]; first compound 8 µM)	relative viability ([4]; first compound 0.8 µM)	relative viability ([4]; first compound 2.53 µM)	relative viability ([4]; first compound 8 µM)
NCI-H647	0.538	0.38	0.457	0.486	0.533	0.326	0.464	0.401	0.454	0.299	0.425	0.325	0.167	0.0949	0.156	0.164
NCI-H650	0.981	0.939	0.921	1.1	0.941	0.983	0.928	0.792	0.777	0.916	0.778	0.771	0.748	0.841	0.992	0.851
NCI-H661	0.691	0.503	0.584	0.586	0.567	0.41	0.377	0.356	0.392	0.363	0.333	0.34	0.361	0.908	0.934	0.924
NCI-H838	0.596	0.487	0.54	0.557	0.45	0.411	0.34	0.432	0.505	0.393	0.278	0.268	0.25	0.236	0.242	0.259
NCI-H1355	0.472	0.324	0.404	0.448	0.376	0.423	0.396	0.493	0.512	0.316	0.555	0.5	0.518	1.12	1.03	1.03
NCI-H1395	1.24	0.983	0.886	1.1	0.916	0.589	0.911	0.547	0.644	0.753	0.737	0.671	0.82	0.887	0.816	0.924
NCI-H1437	0.539	0.409	0.54	0.543	0.527	0.403	0.364	0.372	0.472	0.449	0.411	0.337	0.275	0.324	0.308	0.326
NCI-H1650	0.6	0.505	0.514	0.565	0.447	0.491	0.503	0.48	0.583	0.414	0.348	0.404	0.346	0.332	0.355	0.397
NCI-H1651	0.805	0.803	0.828	0.826	0.8	0.598	0.359	0.574	0.601	0.634	0.734	0.687	0.564	0.726	0.61	0.521
NCI-H1666	0.792	0.665	0.835	0.765	0.783	0.451	0.407	0.389	0.35	0.406	0.627	0.62	0.545	0.768	0.818	0.832
NCI-H1734	0.757	0.607	0.61	0.685	0.628	0.53	0.435	0.468	0.452	0.447	0.294	0.29	0.244	0.438	0.431	0.422
NCI-H1755	0.859	0.768	0.791	0.803	0.771	0.523	0.376	0.424	0.457	0.473	0.501	0.553	0.426	0.417	0.422	0.436
NCI-H1793	0.479		0.408	0.43	0.513	0.402	0.276	0.34	0.258	0.389	0.31	0.249	0.269	0.792	0.587	0.806
NCI-H1915	0.319	0.276	0.297	0.32	0.292	0.919	0.827	0.878	0.917	0.615	0.458	0.454	0.468	0.518	0.464	0.51
NCI-H1944	0.387	0.403	0.428	0.445	0.41	0.283	0.299	0.313	0.368	0.325	0.263	0.263	0.234	0.634	0.589	0.576
NCI-H1975	0.348	0.319	0.309	0.33	0.331	0.321	0.259	0.261	0.324	0.211	0.781	0.622	0.659	0.358	0.293	0.3
